System: carragenin induced edema
Assay: carragenin induced edema test in rats (antiinflammatory activity)
Format: in vivo
Conditions: per os; for decrease of the induced edema: 100 mg/kg; for decrease of the induced edema over the controls: dose levels ranging from about 20 to about 50 mg/kg
Description: The compounds of the invention display excellent pharmacological properties; more particularly they are active essentially as antiinflammatories and as prostaglandin synthetase inhibitors. The antiinflammatory activity was investigated through the "carragenin induced edema" test in rats, which was performed following substantially the operative schema proposed by C.A. Winter et al. in Proc. Soc. Expl. Biol. Med., 111, 544, 1962.
It must be noted that a percent decrease of the edema of 30 is absolutely significative from the pharmacological standpoint. Moreover when administered per os at 100 mg/kg the compounds of examples 3 and 7 caused a decrease of the induced edema of about 55%. These very favorable antiinflammatory properties are coupled with a low toxicity, being the LD50 of the compounds of the invention always higher than 500 mg/kg p.o. in mice. Toxicities were determined substantially according to the method described by Lichtfield and Wilcoxon in Journ. Pharm. Expt. Ther., 96, 99 1949.

SMILES	decrease of the induced edema	decrease of the induced edema over the controls
CCn1c(-c2ccccc2)c2c(C)nc(-c3ccccc3)c-2[nH]c1=O.Cl [Example 3, 3-Ethyl-5-methyl-4,7-diphenyl-1H-pyrrolo[3,4-d]pyrimidine-2(3H)-one hydrochloride]	about 55%	at least 30%
CCn1c(-c2ccccc2)c2[nH]c(=O)nc(-c3ccccc3)c2c1C [Example 6, 6-Ethyl-5-methyl-4,7-diphenyl-6H-pyrrolo[3,4-d]pyrimidine-2(1H)-one]		at least 30%
CCn1c(C)c2c(-c3ccccc3)nc(=O)n(CC)c2c1-c1ccccc1 [Example 7, 1,6-Diethyl-5-methyl-4,7-diphenyl-6H-pyrrolo[3,4-d]pyrimidine-2(1H)-one]	about 55%	at least 30%

Reference: US3993650A, “Pyrrolo [3,4-d] pyrimidines” (Gruppo Lepetit S.p.A., priority 1975, dated 1976)
